Results: patent US20250230193A1, “CYCLIC COMPOUND HAVING SELECTIVE KRAS INHIBITORY EFFECT ON HRAS AND NRAS” (CHUGAI SEIYAKU KABUSHIKI KAISHA, priority 2022, published 2025)
Where a SMILES comes first, the peptide text is derived from it. Bridges are numbered along the chain shown (N, C = ends). [ ]: non-standard residue; d: D form. The star is where a group is joined. hPhe(3,5-F2-4-CF3) = N[C@@H](CCc1cc(F)c(C(F)(F)F)c(F)c1)C(=O)O; hPhe(3-Cl-4-CF3) = N[C@@H](CCc1ccc(C(F)(F)F)c(Cl)c1)C(=O)O; NPrPhe(4-CF3) = CCCN[C@@H](Cc1ccc(C(F)(F)F)cc1)C(=O)O; NEtPhe(4-Me) = CCN[C@@H](Cc1ccc(C)cc1)C(=O)O; NMeAbu(4,4,4-F3) = CN[C@@H](CC(F)(F)F)C(=O)O; NMeGly(cPent) = CN[C@H](C(=O)O)C1CCCC1; NMeD = CN[C@@H](CC(=O)O)C(=O)O; NMeL = CN[C@@H](CC(C)C)C(=O)O; Morpholide = C1CN(*)CCO1; Ac5c = NC1(C(=O)O)CCCC1; Aze = O=C(O)[C@@H]1CCN1; NEtG = CCNCC(=O)O; Sar = CNCC(=O)O

How the values were obtained:
[1] = molecular target: GDP-bound NRAS wild-type protein (Homo sapiens, UniProt P01111); experiment: Binding to NRAS by surface plasmon resonance (SPR), Single Cycle Kinetics; settings: SPR
Sequence of GDP-bound NRAS wild-type protein (P01111 whole entry): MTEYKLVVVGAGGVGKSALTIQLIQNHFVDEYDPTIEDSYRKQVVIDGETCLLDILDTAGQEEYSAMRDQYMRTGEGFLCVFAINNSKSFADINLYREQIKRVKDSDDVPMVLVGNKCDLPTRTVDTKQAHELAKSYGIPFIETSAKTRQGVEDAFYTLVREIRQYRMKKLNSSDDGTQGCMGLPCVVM

[2] = molecular target: GDP-bound HRAS wild-type protein (Homo sapiens, UniProt P01112); experiment: Binding to HRAS by surface plasmon resonance (SPR), Single Cycle Kinetics; settings: SPR
Sequence of GDP-bound HRAS wild-type protein (P01112 whole entry): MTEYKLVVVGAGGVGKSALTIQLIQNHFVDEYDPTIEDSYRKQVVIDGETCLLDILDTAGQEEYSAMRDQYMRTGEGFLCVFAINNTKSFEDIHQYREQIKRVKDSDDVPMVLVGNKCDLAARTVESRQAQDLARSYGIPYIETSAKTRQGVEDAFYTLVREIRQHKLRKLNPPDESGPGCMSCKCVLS

[3] = KD ratio, GDP-bound NRAS wild-type vs GDP-bound KRAS wild-type
[4] = KD ratio, GDP-bound HRAS wild-type vs GDP-bound KRAS wild-type
[5] = GDP-bound NRAS wild-type vs GDP-bound KRAS wild-type
[6] = GDP-bound HRAS wild-type vs GDP-bound KRAS wild-type

## CCCN1C(=O)CN(C)C(=O)[C@@H]2CCN2C(=O)[C@H]([C@@H](C)CC)NC(=O)[C@H](CC(C)C)N(C)C(=O)C[C@@H](C(=O)N2CCOCC2)N(C)C(=O)[C@H](CC(F)(F)F)N(C)C(=O)C2(CCCC2)NC(=O)[C@@H]2CCCN2C(=O)[C@H](CCc2cc(F)c(C(F)(F)F)c(F)c2)NC(=O)CN(C)C(=O)[C@@H]1Cc1ccc(C(F)(F)F)cc1 [PP0784] ([NMeL]I[Aze][Sar][NPrPhe(4-CF3)][Sar][hPhe(3,5-F2-4-CF3)]P[Ac5c][NMeAbu(4,4,4-F3)][NMeD]-Morpholide; lactam N-11)
[1]; KD ratio NRAS/KRAS
  NRAS/KRAS (ratio of KD value with respect to GDP-bound NRAS wild-type protein to KD value with respect to KRAS): B (a compound having 3 or more and less than 10 is denoted as B)
[2]; KD ratio HRAS/KRAS
  HRAS/KRAS (ratio of KD value with respect to GDP-bound HRAS wild-type protein to KD value with respect to KRAS): B (a compound having 3 or more and less than 10 is denoted as B)

## CC[C@H](C)[C@@H]1NC(=O)[C@H](CC(C)C)N(C)C(=O)C[C@@H](C)N(C)C(=O)[C@H](C2CCCC2)N(C)C(=O)C2(CCCC2)NC(=O)[C@@H]2CCCN2C(=O)[C@H](CCc2cc(F)c(C(F)(F)F)c(F)c2)NC(=O)CN(C)C(=O)[C@H](Cc2ccc(C(F)(F)F)cc2)N2CC/C=C\C[C@@H](C2=O)N(C)C(=O)CN(C)C1=O [PP1102]
[1]; [3]
  NRAS/KRAS (ratio of KD value with respect to NRAS to KD value with respect to KRAS): B (a compound having 3 or more and less than 10 is denoted as B)
[2]; [4]
  HRAS/KRAS (ratio of KD value with respect to HRAS to KD value with respect to KRAS): A (a compound having 10 or more and less than 20 is denoted as A)

## CC[C@H](C)[C@@H]1NC(=O)[C@H](COC)N(C)C(=O)C[C@@H](C(=O)N(C)C)N(C)C(=O)[C@H](C2CCCC2)N(C)C(=O)C2(CC(C)(C)C2)NC(=O)[C@@H]2C[C@H](C)CN2C(=O)[C@H](CCc2ccc(C(F)(F)F)c(Cl)c2)NC(=O)CN(C)C(=O)[C@H](Cc2ccc(C)cc2)N2CC/C=C\C[C@@H](C2=O)N(C)C(=O)CN(C)C1=O [PP2502]
[1]; [5]
  NRAS/KRAS (ratio of KD value with respect to NRAS to KD value with respect to KRAS): A (a compound having 10 or more and less than 20 is denoted as A)
[2]; [6]
  HRAS/KRAS (ratio of KD value with respect to HRAS to KD value with respect to KRAS): A (a compound having 10 or more and less than 20 is denoted as A)

## CCCOC[C@H]1C(=O)N[C@@H]([C@@H](C)CC)C(=O)N(C)CC(=O)N(C)[C@H]2C/C=C\CCN(C2=O)[C@@H](CC2CCCCC2)C(=O)N(C)CC(=O)N[C@@H](CCc2cc(F)c(C(F)(F)F)c(F)c2)C(=O)N2C[C@H](OCC)C[C@H]2C(=O)NC2(CC(C)(C)C2)C(=O)N(C)[C@@H](C(CC)CC)C(=O)N(C)[C@H](C(=O)N(C)C)CC(=O)N1C [PP2501]
[1]; [5]
  NRAS/KRAS (ratio of KD value with respect to NRAS to KD value with respect to KRAS): AA (a compound having 20 or more is denoted as AA)
[2]; [6]
  HRAS/KRAS (ratio of KD value with respect to HRAS to KD value with respect to KRAS): A (a compound having 10 or more and less than 20 is denoted as A)

## CCC[C@H]1C(=O)N[C@@H](C2CCCC2)C(=O)N(C)CC(=O)N(C)[C@H]2C/C=C\CCN(C2=O)[C@@H](Cc2ccc(C)cc2)C(=O)N(C)CC(=O)N[C@@H](CCc2ccc(C(F)(F)F)c(Cl)c2)C(=O)N2C[C@H](OCC)C[C@H]2C(=O)NC2(CC(C)(C)C2)C(=O)N(C)[C@@H](CC(C)C)C(=O)N(C)[C@H](C(=O)N(C)C)CC(=O)N1C [PP2190]
[1]; [5]
  NRAS/KRAS (ratio of KD value with respect to NRAS to KD value with respect to KRAS): A (a compound having 10 or more and less than 20 is denoted as A)
[2]; [6]
  HRAS/KRAS (ratio of KD value with respect to HRAS to KD value with respect to KRAS): A (a compound having 10 or more and less than 20 is denoted as A)

## CC[C@H](C)[C@@H]1NC(=O)[C@H](CC(C)C)N(C)C(=O)C[C@@H](C(=O)N2CCOCC2)N(C)C(=O)[C@H](C2CCCC2)N(C)C(=O)C2(CCCC2)NC(=O)[C@@H]2CCCN2C(=O)[C@H](CCc2ccc(C(F)(F)F)c(Cl)c2)NC(=O)CN(CC)C(=O)[C@H](Cc2ccc(C)cc2)N(CC)C(=O)CN(CC)C(=O)CN(C)C1=O [PP0030] ([NMeL]I[Sar][NEtG][NEtPhe(4-Me)][NEtG][hPhe(3-Cl-4-CF3)]P[Ac5c][NMeGly(cPent)][NMeD]-Morpholide; lactam N-11)
[1]; KD ratio NRAS/KRAS
  NRAS/KRAS (ratio of KD for GDP-bound NRAS wild-type to KD for KRAS): C (A compound having a KD ratio of 0.1 or more and less than 3 is denoted as C)
[2]; KD ratio HRAS/KRAS
  HRAS/KRAS (ratio of KD for GDP-bound HRAS wild-type to KD for KRAS): C (A compound having a KD ratio of 0.1 or more and less than 3 is denoted as C)

## CCO[C@@H]1C[C@H]2C(=O)NC3(CCC3)C(=O)N(C)[C@@H](C3CCCC3)C(=O)N(C)[C@H](C(=O)N(C)C)CC(=O)N(C)[C@@H](CC)C(=O)N[C@@H]([C@@H](C)CC)C(=O)N(C)CC(=O)N(C)[C@H]3CC(C)=C(C)CN(C3=O)[C@@H](Cc3ccc(C(F)(F)F)cc3)C(=O)N(C)CC(=O)N[C@@H](CCc3cc(F)c(C(F)(F)F)c(F)c3)C(=O)N2C1 [PP1048]
[1]; [3]
  NRAS/KRAS (ratio of KD value with respect to NRAS to KD value with respect to KRAS): C (A compound having a KD ratio of 0.1 or more and less than 3 is denoted as C)
[2]; [4]
  HRAS/KRAS (ratio of KD value with respect to HRAS to KD value with respect to KRAS): C (A compound having a KD ratio of 0.1 or more and less than 3 is denoted as C)

## CCO[C@@H]1C[C@H]2C(=O)NC3(CC(F)(F)C3)C(=O)N(C)[C@@H](C3CCCC3)C(=O)N(C)[C@H](C(=O)N(C)CC)CC(=O)N(C)[C@@H](CC3CC3)C(=O)N[C@@H]([C@@H](C)CC)C(=O)N(C)CC(=O)N(C)[C@H]3C/C=C\CCN(C3=O)[C@@H](Cc3ccc(C(F)(F)F)cc3)C(=O)N(C)CC(=O)N[C@@H](CCc3cc(F)c(C(F)(F)F)c(F)c3)C(=O)N2C1 [PP1738]
[1]; [3]
  NRAS/KRAS (ratio of KD value for NRAS to KD value for KRAS): AA (a compound having 20 or more is denoted as AA)
[2]; [4]
  HRAS/KRAS (ratio of KD value for HRAS to KD value for KRAS): A (a compound having 10 or more and less than 20 is denoted as A)
